Data from patent US20220073536A1 (Rigel Pharmaceuticals, Inc., priority 2003, published 2022).
pIC50: −log10 of the molar value. Where a name gives a salt, the structure may show the parent alone. Read-outs that look alike come from different tables or passages of the source.

Tested on: cultured human mast cells (CHMC)
Assay: CHMC low cell density IgE activation: tryptase assay
Format: cell-based
Conditions: low cell density CHMC, IgE activation
How it was run: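 CHMC were seeded at 1000–1500 cells/well in MT buffer and incubated 1 hr at 37 °C. They were then stimulated with anti-IgE for 30 min at 37 °C, with unstimulated wells as controls. Released tryptase in the supernatant was measured with a fluorogenic substrate after 30 min at room temperature.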

[1] = Homo sapiens, Mast cell, tryptase, 3 pt, read-out: LD Tryptase, CHMC, IgE, 3 pt
[2] = tryptase, 8 pt, read-out: LD Tryptase, CHMC, IgE, 8 pt
[3] = tryptase, 3 pt, read-out: LD Tryptase, CHMC, IgE, 3 pt
[4] = Homo sapiens, Mast cell, tryptase, 8 pt, read-out: LD Tryptase, CHMC, IgE, 8 pt

pIC50 [1]	SMILES	also measured
	Cc1cc(C)cc(Nc2ncc(F)c(Nc3ccc4c(n3)NC(=O)[C@H](C)O4)n2)c1 [Compound 1084, (S)-N2-(3,5-Dimethylphenyl)-5-fluoro-N4-(2-methyl-3-oxo-2H,4H-5-pyrid[1,4]oxazin-6-yl)-2,4-pyrimidinediamine]	pIC50 (tryptase readout, 3 pt, read-out: LD Tryptase, CHMC, IgE, 3 pt): < 5.00; pIC50 (tryptase readout, 8 pt, read-out: LD Tryptase, CHMC, IgE, 8 pt): > 5.00
< 5.00	CCOC(=O)N1CCN(c2cccc(Nc3ncc(F)c(NC4CN(C(=O)OC(C)(C)C)C4)n3)c2)CC1 [Compound 1129]	
< 5.00	CCOC(=O)N1CCN(c2cccc(Nc3ncc(F)c(NC4CNC4)n3)c2)CC1 [Compound 1130]	
< 5.00	CN1CCN(c2ccc(Nc3ncc(F)c(NC4CNC4)n3)cc2)CC1 [Compound 1131]	
	Fc1cnc(Nc2cccc(-c3cnco3)c2)nc1Nc1ccc2c(n1)NCCO2 [Compound 1132, N4-(3,4-Dihydro-2H,4H-5-pyrid[1,4]oxazin-6-yl)-5-fluoro-N2-[3-(oxazol-5-yl)phenyl]-2,4-pyrimidinediamine]	pIC50 [2]: > 5.00
< 5.00	CN(c1nc(Cl)ncc1F)C1CCC1 [Compound 1133, 2-Chloro-N4-cyclobutyl-5-fluoro-N4-methyl-4-pyrimidineamine]	
	CC(=O)N1CCN(c2ccc(Nc3ncc(F)c(Nc4ccc5c(n4)NCCO5)n3)cc2)CC1 [Compound 1134, N2-[4-(4-Acetylpiperazino)phenyl]-N4-(3,4-dihydro-2H,4H-5-pyrid[1,4]oxazin-6-yl)-5-fluoro-2,4-pyrimidinediamine]	pIC50 [3]: > 5.00; pIC50 [2]: > 5.00
	CCOC(=O)N1CCN(c2ccc(Nc3ncc(F)c(Nc4ccc5c(n4)NCCO5)n3)cc2)CC1 [Compound 1135, N4-(3,4-Dihydro-2H,4H-5-pyrid[1,4]oxazin-6-yl)-N2-[4-(4-ethoxycarbonylpiperazino)phenyl]-5-fluoro-2,4-pyrimidinediamine]	pIC50 [3]: > 5.00; pIC50 [2]: > 5.00
	Fc1cnc(Nc2cccc(N3CCOCC3)c2)nc1Nc1ccc2c(n1)NCCO2 [Compound 1136, N4-(3,4-Dihydro-2H,4H-5-pyrid[1,4]oxazin-6-yl)-5-fluoro-N2-(3-morpholinophenyl)-2,4-pyrimidinediamine]	pIC50 [3]: > 5.00; pIC50 [2]: > 5.00
	CC(=O)N1CCN(c2cccc(Nc3ncc(F)c(Nc4ccc5c(n4)NCCO5)n3)c2)CC1 [Compound 1137, N2-[3-(4-Acetylpiperazino)phenyl]-N4-(3,4-dihydro-2H,4H-5-pyrid[1,4]oxazin-6-yl)-5-fluoro-2,4-pyrimidinediamine]	pIC50 [3]: > 5.00; pIC50 [2]: > 5.00
	CCOC(=O)N1CCN(c2cccc(Nc3ncc(F)c(Nc4ccc5c(n4)NCCO5)n3)c2)CC1 [Compound 1138, N4-(3,4-Dihydro-2H,4H-5-pyrid[1,4]oxazin-6-yl)-N2-[3-(4-ethoxycarbonylpiperazino)phenyl]-5-fluoro-2,4-pyrimidinediamine]	pIC50 [3]: > 5.00; pIC50 [2]: > 5.00
> 5.00	CN1CCN(c2ccc(Nc3ncc(F)c(NC4CCC4)n3)cc2Cl)CC1 [Compound 1188, N4-Cyclobutyl-5-fluoro-N2-[3-chloro-4-(4-methylpiperazino)phenyl]-2,4-pyrimidinediamine]	
	CC(=O)N1CCN(c2ccc(Nc3ncc(F)c(NC4CCC4)n3)cc2)CC1 [Compound 1192, N2-[4-(4-Acetylpiperazino)phenyl]-N4-cyclobutyl-5-fluoro-2,4-pyrimidinediamine Bis Hydrogen Chloride Salt]	pIC50 [3]: > 5.00
> 5.00	CN1CCN(c2ccc(Nc3ncc(F)c(NC4CCCC4)n3)cc2Cl)CC1 [Compound 1195, N2-[3-Chloro-4-(4-methylpiperazino)phenyl]-N4-cyclopentyl-5-fluoro-2,4-pyrimidinediamine]	
> 5.00	CN1CCN(c2ccc(Nc3ncc(F)c(Nc4cc(C5CC5)n[nH]4)n3)cc2Cl)CC1 [Compound 1196, N2-[3-Chloro-4-(4-methylpiperazino)phenyl]-N4-(3-cyclopropyl-1H-pyrazol-5-yl)-5-fluoro-2,4-pyrimidinediamine]	
	CN1CCN(c2ccc(Nc3ncc(F)c(Nc4ccc5c(n4)NCCO5)n3)cc2Cl)CC1 [Compound 1197, N2-[3-Chloro-4-(4-methylpiperazino)phenyl]-N4-(3,4-dihydro-2H,4H-5-pyrid[1,4]oxazin-6-yl)-5-fluoro-2,4-pyrimidinediamine]	pIC50 [3]: > 5.00; pIC50 [2]: > 5.00
	CN1CCN(c2ccc(Nc3ncc(F)c(NC4CCCCC4)n3)cc2Cl)CC1 [Compound 1199, N2-[3-Chloro-4-(4-methylpiperazino)phenyl]-N4-cyclohexyl-5-fluoro-2,4-pyrimidinediamine Bis Hydrogen Chloride Salt]	pIC50 [2]: > 5.00
> 5.00	Cc1cc(Nc2ncc(F)c(NC3CCCC3)n2)ccc1N1CCN(C)CC1 [Compound 1200]	
> 5.00	Cc1cc(Nc2ncc(F)c(NC3CCCCC3)n2)ccc1N1CCN(C)CC1 [Compound 1201]	pIC50 [4]: > 5.00

pIC50 [1]	SMILES	also measured
> 5.00	Cc1cc(Nc2ncc(F)c(Nc3cc(C4CC4)n[nH]3)n2)ccc1N1CCN(C)CC1 [Compound 1202]	pIC50 [4]: > 5.00
	Cc1cc(Nc2ncc(F)c(Nc3ccc4c(n3)NCCO4)n2)ccc1N1CCN(C)CC1 [Compound 1203, N4-(3,4-Dihydro-2H,4H-5-pyrid[1,4]oxazin-6-yl)-5-fluoro-N2-[3-methyl-4-(4-methylpiperazino)phenyl]-2,4-pyrimidinediamine]	pIC50 [3]: > 5.00; pIC50 [2]: > 5.00
> 5.00	CC(C)Nc1nc(Nc2ccc(N3CCN(C)CC3)cc2)ncc1F [Compound 1204]	
> 5.00	CC(C)Nc1nc(Nc2ccc(N3CCN(C)CC3)c(Cl)c2)ncc1F [Compound 1205]	
> 5.00	Cc1cc(Nc2ncc(F)c(NC(C)C)n2)ccc1N1CCN(C)CC1 [Compound 1206]	pIC50 [4]: < 5.00
> 5.00	CN1CCN(c2ccc(Nc3ncc(F)c(NC4CCC4)n3)cc2C(F)(F)F)CC1 [Compound 1207]	
> 5.00	CN1CCN(c2ccc(Nc3ncc(F)c(NC4CCCC4)n3)cc2C(F)(F)F)CC1 [Compound 1208]	
> 5.00	CN1CCN(c2ccc(Nc3ncc(F)c(NC4CCCCC4)n3)cc2C(F)(F)F)CC1 [Compound 1209]	
> 5.00	CC(C)Nc1nc(Nc2ccc(N3CCN(C)CC3)c(C(F)(F)F)c2)ncc1F [Compound 1210]	
	CN1CCN(c2ccc(Nc3ncc(F)c(Nc4cc(C5CC5)n[nH]4)n3)cc2C(F)(F)F)CC1 [Compound 1211]	pIC50 [3]: > 5.00
< 5.00	CN1C(C)(C)CC(Nc2nc(Cl)ncc2F)CC1(C)C [Compound 1212]	
< 5.00	CCOC(=O)N1CCC(Nc2nc(Cl)ncc2F)CC1 [Compound 1213]	
< 5.00	CC(C)Nc1nc(Nc2cccc(N3CCN(C)CC3)c2)ncc1F [Compound 1214]	
< 5.00	CN1CCN(c2ccc(Nc3ncc(F)c(NC(C)(C)C)n3)cc2)CC1 [Compound 1215]	
< 5.00	CN1CCN(c2cccc(Nc3ncc(F)c(NC(C)(C)C)n3)c2)CC1 [Compound 1216]	
> 5.00	CN1CCN(c2ccc(Nc3ncc(F)c(NC(C)(C)C)n3)cc2Cl)CC1 [Compound 1217]	
	Cc1cc(Nc2ncc(F)c(NC(C)(C)C)n2)ccc1N1CCN(C)CC1 [Compound 1218]	pIC50 [4]: > 5.00
< 5.00	CN1CCN(c2ccc(Nc3ncc(F)c(NC4CC(C)(C)N(C)C(C)(C)C4)n3)cc2)CC1 [Compound 1219]	
	Cc1cc(Nc2ncc(F)c(NC3CCC3)n2)ccc1N1CCN(C)CC1 [Compound 1220]	pIC50 [4]: > 5.00

pIC50 [1]	SMILES	also measured
< 5.00	CN1CCN(c2cccc(Nc3ncc(F)c(NC4CC(C)(C)N(C)C(C)(C)C4)n3)c2)CC1 [Compound 1221]	
< 5.00	CN1CCN(c2ccc(Nc3ncc(F)c(NC4CC(C)(C)N(C)C(C)(C)C4)n3)cc2Cl)CC1 [Compound 1222]	
> 5.00	Cc1cc(Nc2ncc(F)c(NC3CC(C)(C)N(C)C(C)(C)C3)n2)ccc1N1CCN(C)CC1 [Compound 1223]	
< 5.00	CN1CCN(c2ccc(Nc3ncc(F)c(NC4CC(C)(C)N(C)C(C)(C)C4)n3)cc2C(F)(F)F)CC1 [Compound 1224]	
> 5.00	CCOC(=O)N1CCC(Nc2nc(Nc3ccc(N4CCN(C)CC4)cc3)ncc2F)CC1 [Compound 1225]	
> 5.00	CCOC(=O)N1CCC(Nc2nc(Nc3cccc(N4CCN(C)CC4)c3)ncc2F)CC1 [Compound 1226]	
> 5.00	CCOC(=O)N1CCC(Nc2nc(Nc3ccc(N4CCN(C)CC4)c(Cl)c3)ncc2F)CC1 [Compound 1227]	
> 5.00	CCOC(=O)N1CCC(Nc2nc(Nc3ccc(N4CCN(C)CC4)c(C)c3)ncc2F)CC1 [Compound 1228]	
> 5.00	CCOC(=O)N1CCC(Nc2nc(Nc3ccc(N4CCN(C)CC4)c(C(F)(F)F)c3)ncc2F)CC1 [Compound 1229]	
> 5.00	CCN1CCN(c2ccc(Nc3ncc(F)c(NC4CCC4)n3)cn2)CC1 [Compound 1230]	
> 5.00	CCN1CCN(c2ccc(Nc3ncc(F)c(NC4CCCC4)n3)cn2)CC1 [Compound 1231]	
> 5.00	CCN1CCN(c2ccc(Nc3ncc(F)c(NC4CCCCC4)n3)cn2)CC1 [Compound 1232]	
> 5.00	CN1CCN(c2ccc(Nc3ncc(F)c(NC(C)(C)C)n3)cc2C(F)(F)F)CC1 [Compound 1233]	
> 5.00	CCN1CCN(c2ccc(Nc3ncc(F)c(NC(C)C)n3)cn2)CC1 [Compound 1234]	
	CN1CCN(c2ccc(Nc3ncc(F)c(NC4CCC4)n3)cc2CO)CC1 [Compound 1235]	pIC50 [4]: < 5.00
< 5.00	CCN1CCN(c2ccc(Nc3ncc(F)c(NC(C)(C)C)n3)cn2)CC1 [Compound 1236]	
< 5.00	CCN1CCN(c2ccc(Nc3ncc(F)c(NC4CC(C)(C)N(C)C(C)(C)C4)n3)cn2)CC1 [Compound 1237]	
< 5.00	CCOC(=O)N1CCC(Nc2nc(Nc3ccc(N4CCN(CC)CC4)nc3)ncc2F)CC1 [Compound 1238]	
